Source: patent US20120184765A1, “Process for preparing alkyl phosphates” (LANXESS DEUTSCHLAND GMBH, priority 2011, published 2012)

Test: Solubility of tetraalkyl bisphosphates in water (separating funnel test)
Assay type: physicochemical
Details: for water solubility (phase separation observed): 50.0 g tetraalkyl bisphosphate + 50.0 g fully demineralized water, shaken, left to stand 1 hour, residue of aqueous phase / weight of aqueous phase; for solubility / miscibility in water (in words): conclusion from the phase separation experiments; for phase separation in further experiments: different weight ratios of tetraalkyl bisphosphate and water
Description: A separating funnel was charged with 50.0 g of tetraalkyl bisphosphate and 50.0 g of fully demineralized water, and was shaken vigorously and then left to stand for 1 hour. If phase separation became apparent, the lower, aqueous phase was carefully separated off and weighed (mw). The aqueous phase was concentrated to constant weight under reduced pressure on a rotary evaporator, and the residue was likewise weighed (mR).

water solubility (phase separation observed) | solubility / miscibility in water (in words) | phase separation in further experiments | Compound
no phase separation | fully water-soluble | no phase separation | tetramethyldiethylene glycol bisphosphate
no phase separation | fully water-soluble | no phase separation | CCOP(=O)(OCC)OCCOCCOP(=O)(OCC)OCC [Tetraethyldiethylene glycol bisphosphate, tetraethyldiethylene glycol bisphosphate]
